“Also recorded” adds a separate entry of the source. Structures can show the parent of a compound that is named as a salt.

In one series the test system is luciferase secretion. Description: C.Luc. Secretion Assay. The class given is cell-based. As to conditions: for effect on secretory deficits, in words: orthogonal assays. The protocol:
We tested each shRNA for its ability to rescue a previously described defect in luciferase secretion. Chen, P. et al. (2010) Hum. Mol. Genet. 19, 3502-15; Cao, S. et al. (2010) Dis. Model Mech. 3, 386-96; Barrows, N. J., et al., (2010) J. Biomol. Screen. 15, 735-47.) DYT1 patient data were obtained from 4 independent patient-derived lines and WT data (black bar) from 3 normal healthy control lines. Each line was tested in 5 independent experiments that included 4 technical replicates each (with the exception of SCD data from 3 independent experiments).
(Cao, S. et al. (2010) Dis. Model. Mech. 3, 386-96.) Subsequent testing of additional HIV protease inhibitors supported the activity of this class of compounds and generated favorable structure-activity relationship (SAR) data from which to design improved compounds (Tables 5 and 6). The results with a subset of compounds were also observed in a Luciferase secretion assay (Tables 5 and 6).

For series [1], the system named is Flp-In T-REx 293 cells inducibly expressing delta-E Torsin1a. Description: Cytotoxicity (cell count, cellular morphology) in the Torsin1a assay cell line. The class given is cell-based, human. The conditions noted are these: for Cytotox CC-v2 (dose response Curve Class): curve class per Inglese et al. 2006. The protocol:
(§1) In order to test this model directly, the delta-E Torsin1a cell line was treated with compounds targeting the eIF2-alpha signaling pathway (FIG. 2). […] The following day, serial drug dilutions were prepared at 2× final concentration in assay media containing 10 μg/mL tetracycline and 30 μL of the drug/tetracycline mixture was added to the appropriate wells, while control wells received 30 μL of assay media alone or assay media+10 μg/mL tetracycline (final tetracycline concentration for all wells except negative controls: 5 μg/mL). Cells were then incubated at 37° C./5% CO^2 for 48 hours and fixed, permeabilized, Hoechst stained, and imaged as described above. The range of the Torsin1a localization effect was normalized to the percentage of cells with puncta in vehicle-treated delta-E cell line as the maximum and that in WT cell line as the minimum (FIG. 2, panels c-h). Cell count and EGFP-Torsin1a expression were normalized to their respective values in the vehicle-treated delta-E cell line as the maximum. All dose response data are the average of 4 independent experiments per dose. Untreated control data used for normalization are the average of 24 independent experiments.
Efficacy is calculated as the magnitude of the pathology correction relative to the mutant Torsin1a pathology. For example an efficacy=−100% would be equivalent to the WT TorsinA phenotype, and 0% would be equivalent to the Mutant TorsinA phenotype. CCv2 refers to the dose response Curve Class annotation, and AC refers to Active Concentration.

Series [2] has as its system delta-E Torsin1a localization. Briefly: Delta-E Torsin1a mislocalization assay (% cells with EGFP puncta, high-content imaging). In kind it is cell-based, human. As to conditions: for effect on delta-E Torsin1a localization (cells with puncta), in words: dose response; for % pathology CC-v2 (dose response Curve Class): curve class per Inglese et al. 2006. The protocol:
To limit variation in expression levels associated with random integration or transient expression, single copies of either WT or delta-E human TOR1A cDNAs with N-terminal EGFP fusions were inserted at the FRT site in Flp-In™ T-Rex™ 293 cells (Thermo Fisher Scientific #R780-07) via flippase recombinase-mediated cassette exchange according to the manufacturer's recommended protocols.
The cells were maintained at 37° C./5% CO2. All experiments were performed on cells with fewer than 5 passages.
Torsin1a expression was also controlled by tetracycline induction to avoid selective pressure modifying the cellular phenotypes. […] The mutant phenotype was measured as the percentage of cells with one or more EGFP puncta using automated high-content imaging analysis (see infra).
The image analysis algorithm was developed using the Cellomics ArrayScan V CompartmentAnalysisV2 protocol. Hoechst's nuclear staining (Ch1: excitation 350 nm; emission 461 nm) was used for focusing and for cell identification by nuclear size, shape, and intensity. […] Detected cells were gated according to nuclear area, length-to-width ratio, and perimeter-to-area ratio. For the purpose of analysis, cell bodies were defined by a radius of 10 μm from the outer edge of the defined nucleus. Overlapping cells were automatically segmented according to the Cellomics ArrayScanV CompartmentAnalysisV2 object segmentation feature. EGFP fluorescence (Ch2: excitation 488 nm; emission 509 nm) was used for puncta detection. […] Torsin a puncta were identified using the spot detection feature of the Compartmental AnalysisV2 protocol. The percentage of cells containing one or more puncta was used as the primary metric in this assay.
as §1

The subject of series [3] is homozygous DYT1 knock-in mice. Briefly: Perinatal survival of DYT1 knock-in mice after in utero exposure. The class given is in vivo. The source says:
Pairs of heterozygous delta-E Torsin1a knock-in breeders (courtesy of Dr. W. Dauer, University of Michigan) were randomly assigned to vehicle or salubrinal treatment groups. Starting 10 days after breeding cages were established, each female mouse was given a daily subcutaneous injection of vehicle or salubrinal at approximately 6 p.m. Cages were checked for new pups three times per day: morning (˜8 a.m.), early afternoon (˜2 p.m.), and during injections (˜6 p.m.). In order to minimize stress and the possibility of litter abandonment, mice with newborn pups were not given injections. Newborn pups were identified by marking limbs with a permanent laboratory marker, and tail samples were taken for genotyping at P0. At approximately P0.5, cages were checked again, and the status of each pup was recorded. If pups were first observed at the 8 am check, the 2 pm check was considered P0.5. If pups were first observed at the 2 pm or 6 pm checks, an additional check was performed at approximately midnight, and considered P0.5. Mortality was also tracked the following day, after which time identifying marks were predominately washed off or obscured by fur. Approximately 8 days after birth all remaining pups were sacrificed, and 10 days after birth daily injections resumed for the subsequent litter. All genotyping and, whenever possible, all pup identification and mortality checks were performed blinded to treatment group.
Salubrinal (R&D Systems #2347) stocks were prepared at 26 mM (10× final concentration) in DMSO and stored in single-use aliquots at −80° C. Each day immediately before injections, a single salubrinal aliquot was thawed to room temperature and diluted 1:10 in injection vehicle (final vehicle composition: 1×PBS/10% DMSO/0.1% BSA). Empty injection vehicle was stored at room temperature in single-use aliquots. Mice were given a single subcutaneous injection of 3.3 mg/kg salubrinal (approximately 80 μL for a 30 g mouse) or an equivalent volume of empty injection vehicle. […]

Setting [4] is: delta-E Torsin1a assay cell line.

For the compound `CC(C)c1nc(CN(C)C(=O)N[C@H](C(=O)N[C@@H](Cc2ccccc2)C[C@H](O)[C@H](Cc2ccccc2)NC(=O)OCc2cncs2)C(C)C)cs1` [Ritonavir], the “effect on secretory deficits, in words” value with luciferase secretion was “corrected secretory deficits”. Besides, in series [1], the “Cytotox CC-v2 (dose response Curve Class)” value (shortened to “Cytotox CC-v2”) turned out to be 4. Also, the “effect on delta-E Torsin1a localization (cells with puncta), in words” value (shortened to “effect on delta-E Torsin1a localization”) in series [2] (delta-E cell line) is “corrected TorsinA localization in a dose-dependent fashion; also recorded: restored”.
For the compound `O=C(/C=C/c1ccccc1)NC(NC(=S)Nc1cccc2cccnc12)C(Cl)(Cl)Cl` (stereo not shown) [Salubrinal], the “perinatal survival / mortality of delta-E/delta-E pups” value in series [3] (3.3 mg/kg subcutaneous daily to pregnant dams, about embryonic day 10 through delivery, versus vehicle) is “dramatically reduced the mortality; also recorded: improves perinatal survival”. In addition, in series [3] (3.3 mg/kg subcutaneous daily to pregnant dams, versus vehicle), the “mortality of wild-type and heterozygous pups” value is “no mortality differences”. Besides, in series [3] (no postnatal treatment, no vehicle-treated homozygous pup survived the first postnatal day), the “homozygous delta-E Torsin1a pups surviving through the second postnatal day” value was “two”. Besides, in series [2] (delta-E cell line), the “steady-state EGFP-Torsin1a levels, in words” value was “without modifying steady-state EGFP-Torsin1a levels” and the “effect on delta-E Torsin1a localization” value is reported as “robust dose-dependent normalization”.
As to `N=C(N)N/N=C/c1c(Cl)cccc1Cl` [guanabenz], in series [2] (delta-E cell line), the “effect on delta-E Torsin1a localization” value is recorded as “no effect”.
With `C[C@H](NC(=O)Cc1cc(F)cc(F)c1)C(=O)N[C@H](C(=O)OC(C)(C)C)c1ccccc1` [DAPT], the “effect on delta-E Torsin1a localization” value in series [2] (delta-E cell line) is reported as “no effect”.
`Cc1c(O)cccc1C(=O)N[C@@H](CSc1ccccc1)[C@H](O)CN1C[C@H]2CCCC[C@H]2C[C@H]1C(=O)NC(C)(C)C` [Viracept]: in series [1], the “Cytotox Efficacy” value was −106.32%, the “Cytotox Max Resp” value is on record as −97.72% and the “Cytotox CC-v2” value is −1.1.
For the compound `CC(C)(C)NC(=O)[C@@H]1C[C@@H]2CCCC[C@@H]2CN1C[C@@H](O)[C@H](Cc1ccccc1)NC(=O)[C@H](CC(N)=O)NC(=O)c1ccc2ccccc2n1` [Saquinavir], in the series on luciferase secretion, the “effect on secretory deficits, in words” value is listed as “corrected secretory deficits”. Also, in series [2] (delta-E cell line), the “effect on delta-E Torsin1a localization” value was “corrected TorsinA localization in a dose-dependent fashion”.
With `CC(C)(C)NC(=O)[C@@H]1CN(Cc2cccnc2)CCN1C[C@@H](O)C[C@@H](Cc1ccccc1)C(=O)N[C@H]1c2ccccc2C[C@H]1O` [Indinavir sulfate], in series [1], the “Cytotox Efficacy” value is listed as −80.64%, the “Cytotox Max Resp” value is −67.80% and the “Cytotox CC-v2” value is recorded as −3.
For the compound `COC(=O)N[C@H](C(=O)N[C@@H](Cc1ccccc1)[C@@H](O)CN(Cc1ccc(-c2ccccn2)cc1)NC(=O)[C@@H](NC(=O)OC)C(C)(C)C)C(C)(C)C` [Atazanavir], the “Cytotox CC-v2” value in series [1] amounted to 4. The “ΔE TorsinA Mislocalization Assay Localization EC50” value in series [2] (setting [4]) is recorded as “No Activity”.
For the compound `CCN(CC)CCC(=O)N1N=C(c2c(-c3ccccc3)c3cc(Br)ccc3[nH]c2=O)CC1c1ccc(Br)cc1` (stereo not shown) [CCT020312], the “effect on delta-E Torsin1a localization” value in series [2] (delta-E cell line) is reported as “dose-dependent reduction in the number of cells with Torsin1a inclusions”.
`Cc1c(O)cccc1C(=O)N[C@@H](CSc1ccccc1)[C@H](O)CN1C[C@H]2CCCC[C@H]2C[C@H]1C(=O)NC(C)(C)C` [Nelfinavir]: the Emax in series [2] (Homo sapiens, delta-E Torsin1a assay cell line, read-out: ΔE TorsinA Mislocalization Assay Localization Max Efficacy) is 80%. Further, in series [2] (delta-E cell line), the “effect on delta-E Torsin1a localization” value is reported as “corrected TorsinA localization in a dose-dependent fashion”.
Take `CCCC(CCC)C(=O)O` [valproic acid]: the “effect on delta-E Torsin1a localization” value in series [2] (delta-E cell line) is given as “no effect”.
For `CC(C)CN(C[C@@H](O)[C@H](Cc1ccccc1)NC(=O)O[C@H]1CO[C@H]2OCC[C@H]21)S(=O)(=O)c1ccc(N)cc1` [Darunavir], in the series on luciferase secretion, the “C.Luc. Secretion Assay Secretion EC50” value is “No Activity”. Besides, in series [2] (setting [4]), the “ΔE TorsinA Mislocalization Assay Localization EC50” value is recorded as “No Activity”.
Consider `CC(C)CN(C[C@@H](O)[C@H](Cc1ccccc1)NC(=O)O[C@H]1CCOC1)S(=O)(=O)c1ccc(N)cc1` [Amprenavir], for which, in series [1], the “Cytotox CC-v2” value stood at 4. The “ΔE TorsinA Mislocalization Assay Localization EC50” value in series [2] (setting [4]) is “No Activity”.
Consider `Cc1cccc(C)c1OCC(=O)NC(CCC(Cc1ccccc1)NC(=O)C(C(C)C)N1CCCNC1=O)Cc1ccccc1` (stereo not shown) [Des-hydroxy Lopinavir], for which, in series [1], the “Cytotox Efficacy” value was −77.66%, the “Cytotox Max Resp” value is −66.67% and the “Cytotox CC-v2” value is −2.2. Also, the “% pathology CC-v2 (dose response Curve Class)” value in series [2] is −3.
As to `CC(C)(C)NC(=O)[C@@H]1CN(Cc2cccnc2)CCN1C[C@@H](O)C[C@@H](Cc1ccccc1)C(=O)N[C@H]1c2ccccc2C[C@H]1O` [Indinavir], in series [2] (delta-E cell line), the “effect on delta-E Torsin1a localization” value was “corrected TorsinA localization in a dose-dependent fashion”.
In the case of `CS(=O)(=O)O.Cc1c(O)cccc1C(=O)N[C@@H](CSc1ccccc1)[C@H](O)CN1C[C@H]2CCCC[C@H]2C[C@H]1C(=O)NC(C)(C)C.O` [Nelfinavir mesylae hydrate], in series [1], the “Cytotox Efficacy” value is given as −98.05%, the “Cytotox Max Resp” value was −95.64% and the “Cytotox CC-v2” value was −1.1. In addition, the “% pathology CC-v2 (dose response Curve Class)” value in series [2] is given as −1.1.

Source of the values: patent US11529343B2, “Compositions and methods for identifying and treating dystonia disorders” (DUKE UNIVERSITY, priority 2015, dated 2022).
